Assay results from patent publication US5696112A, “Fused heterocyclic azepines as vasopressin antagonists” (American Cyanamid Company, priority 1995, dated 1997).

Tests used:
[1] = molecular target: T1, Rat Hepatic V1 Receptors (vasopressin V1) (Rattus norvegicus, UniProt P30560); assay: Binding Assay to Rat Hepatic V1 Receptors; conditions: rat hepatic V1, [3H]vasopressin
T1 construct: Rat liver plasma membranes expressing the vasopressin V1 receptor subtypes are isolated by sucrose density gradient; from tissue; host or cells: rat liver plasma membranes
T1 sequence (P30560 whole entry): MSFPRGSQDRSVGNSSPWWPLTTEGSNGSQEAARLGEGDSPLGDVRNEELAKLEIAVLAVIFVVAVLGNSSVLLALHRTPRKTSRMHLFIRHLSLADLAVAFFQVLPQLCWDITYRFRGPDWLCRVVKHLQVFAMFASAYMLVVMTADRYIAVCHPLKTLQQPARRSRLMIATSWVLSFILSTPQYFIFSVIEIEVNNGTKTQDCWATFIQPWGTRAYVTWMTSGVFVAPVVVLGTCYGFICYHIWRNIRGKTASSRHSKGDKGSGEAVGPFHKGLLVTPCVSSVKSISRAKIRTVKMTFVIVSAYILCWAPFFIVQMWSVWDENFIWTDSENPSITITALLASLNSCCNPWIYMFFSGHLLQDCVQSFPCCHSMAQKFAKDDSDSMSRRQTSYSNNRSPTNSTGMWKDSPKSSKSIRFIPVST
Procedure: Binding Assay to Rat Hepatic V1 Receptors
Rat liver plasma membranes expressing the vasopressin V1 receptor subtypes are isolated by sucrose density gradient according to the method described by Lesko et al., (1973). These membranes are quickly suspended in 50.0 mMTris.HCl buffer, pH 7.4, containing 0.2% bovine serum albumin (BSA) and 0.1 mM phenylmethylsulfonylfluoride (PMSF) and kept frozen at -70° C. until used in subsequent binding experiments. For binding experiments, the following is added to the wells of a ninety-six well format microtiter plate: 100 μl of 100.0 mM Tris.HCl buffer containing 10.0 mM MgCl2, 0.2% heat inactivated BSA and a mixture of protease inhibitors: leupeptin, 1.0 mg %; aprotinin, 1.0 mg %, 1,10-phenanthroline,2.0 mg %; trypsin inhibitor, 10.0 mg % and 0.1 mM PMSF, 20.0 μl of [phenylalanyl-3,4,5-^3 H]vasopressin (S.A. 45.1 Ci/mmole) at 0.8 nM, and the reaction initiated by the addition of 80 μl of tissue membranes containing 20 μg of tissue protein. The plates are kept undisturbed on the bench top at room temperature for 120 min. to reach equilibrium. Nonspecific samples are assayed in the presence of 0.1 μM of the unlabeled antagonist phenylalanylvasopressin, added in 20.0 μl volume to a final incubation volume of 200 μl. Upon completion of binding, the content of each well is filtered off, using a Brandel® cell Harvester (Gaithersburg, Md.). The radioactivity trapped on the filter disk by the ligand-receptor complex is assessed by liquid scintillation counting in a Packard LS Counter, with an efficiency of 65% for tritium. The data are analyzed for IC50 values by the LUNDON-2 program for competition (LUNDON SOFTWARE, OH).

[2] = molecular target: T2, Rat Kidney Medullary V2 Receptors (vasopressin V2) (Rattus norvegicus, UniProt Q00788); assay: Binding Assay to Rat Kidney Medullary V2 Receptors; conditions: rat kidney medullary V2, [3H]Arg8-vasopressin
T2 construct: Medullary tissues from rat kidneys are dissected out; from tissue; host or cells: rat kidney medulla membranes
T2 sequence (Q00788 whole entry): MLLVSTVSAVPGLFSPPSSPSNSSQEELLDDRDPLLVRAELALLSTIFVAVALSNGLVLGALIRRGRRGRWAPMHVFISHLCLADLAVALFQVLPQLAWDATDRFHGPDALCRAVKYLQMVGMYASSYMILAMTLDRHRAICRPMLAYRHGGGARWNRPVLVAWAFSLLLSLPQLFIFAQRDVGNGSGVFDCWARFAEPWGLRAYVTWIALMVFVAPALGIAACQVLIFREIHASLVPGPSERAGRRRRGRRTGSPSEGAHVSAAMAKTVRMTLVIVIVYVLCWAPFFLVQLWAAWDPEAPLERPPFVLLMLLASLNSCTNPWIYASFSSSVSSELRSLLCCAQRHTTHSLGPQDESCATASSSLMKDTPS
Procedure: Binding Assay to Rat Kidney Medullary V2 Receptors
Medullary tissues from rat kidneys are dissected out, cut into small pieces and let soak in a […] sodium chloride solution containing 1.0 mM EDTA with many changes of the liquid phase, until the solution is clear of blood. The tissue is homogenized in a 0.25M sucrose solution containing 1.0 mM EDTA and 0.1 mM PMSF using a Potter-Elvehjem homogenizer with a teflon pestle. The homogenate is filtered through several layers (4 layers) of cheese cloth. The filtrate is rehomogenized using a dounce homogenizer, with a tight fitting pestle. The final homogenate is contrifuged at 1500×g for 15 min. The nuclear pellet is discarded and the supernatant fluid recentrifuged at 40,000×g for 30 min. The resulting pellet formed contains a dark inner part with the exterior, slightly pink. The pink outer part is suspended in a small amount of 50.0 mMTris.HCl buffer, pH 7.4. The protein content is determined by the Lowry's method (Lowry et al, J. Biol. Chem., 1953). The membrane suspension is stored at -70° C., in 50.0 mMTris.HCl, containing 0.2% inactivated BSA and 0.1 mM PMSF in aliquots of 1.0 ml containing 10.0 mg protein per ml of suspension until use in subsequent binding experiments.
For binding experiments, the following is added in μl volume to wells of a 96 well format of a microtiter plate: 100.0 μl of 100.0 mM Tris.HCl buffer containing 0.2% heat inactivated BSA, 10.0 mM MgCl2 and a mixture of protease inhibitors: leupeptin, 1.0 mg %; aprotinin, 1.0 mg %; 1,10-phenanthroline, 2.0 mg %; trypsin inhibitor, 10.0 mg % and 0.1 mM PMSF, 20.0 μl of [^3 H]Arginine^8, vasopressin (S.A. 75.0 Ci/mmole) at 0.8 nM and the reaction initiated by the addition of 80.0 μl of tissue membranes (200.0 μg tissue protein). The plates are left undisturbed on the bench top for 120 min. to reach equilibrium. Non-specific binding is assessed in the presence of 1.0 μM of unlabeled ligand, added in 20 μl volume. For test compounds, these are solubilized in 50% dimethylsulfoxide (DMSO) and added in 20.0 μl volume to a final incubation volume of 200 μl. Upon completion of binding, the content of each well is filtered off, using a Brandel® cell Harvester (Gaithersburg, Md.). The radioactivity trapped on the filter disk by the ligand-receptor complex is assessed by liquid scintillation counting in a Packard LS Counter, with an efficiency of 65% for tritium. The data are analyzed for IC50 values by the LUNDON-2 program for competition (LUNDON SOFTWARE, OH).

Vasopressin V2 = Vasopressin V2 Antagonist Activity in Conscious Hydrated Rats; assay type: in vivo, rat; conditions: AVP 0.4 μg/kg i.p.
Procedure: Vasopressin V2 Antagonist Activity in conscious Hydrated Rats Conscious hydrated rats are treated with compounds under study from 0.1 to 100 mg/kg orally or vehicle. Two to four rats are used for each compound. One hour later, arginine vasopressin (AVP, antidiuretic hormone, ADH) dissolved in peanut oil is administered at 0.4 μg/kg intraperitoneally. Two rats in each test would not receive arginine vasopressin but only the vehicle (peanut oil) to serve as water-loading control. Twenty minutes later each rat is given 30 mL/kg of deionized water orally by gavage and is placed individually in a metabolic cage equipped with a funnel and a graduated glass cylinder to collect urine for four hours. Urine volume is measured and osmolality analyzed by use of a Fiske One-Ten osmometer (Fiske Assoc., Norwood, Mass. USA). Urinary sodium, potassium, and chloride are analyzed by use of ion-specific electrodes in a Beckman E3 (Electrolyte 3) Analyzer. In the following results, […] and […] osmolality relative to AVP-control indicates activity.

oxytocin receptors = molecular target: T3, oxytocin receptors (Rattus norvegicus, UniProt P70536); assay: Oxytocin Receptor Binding; parameters: species or system Sprague-Dawley rats
T3 construct: The uteri are dissected out, cleaned of fat and connective tissues; from tissue; host or cells: uterus membranes of DES-treated female Sprague-Dawley rats
T3 sequence (P70536 1-388): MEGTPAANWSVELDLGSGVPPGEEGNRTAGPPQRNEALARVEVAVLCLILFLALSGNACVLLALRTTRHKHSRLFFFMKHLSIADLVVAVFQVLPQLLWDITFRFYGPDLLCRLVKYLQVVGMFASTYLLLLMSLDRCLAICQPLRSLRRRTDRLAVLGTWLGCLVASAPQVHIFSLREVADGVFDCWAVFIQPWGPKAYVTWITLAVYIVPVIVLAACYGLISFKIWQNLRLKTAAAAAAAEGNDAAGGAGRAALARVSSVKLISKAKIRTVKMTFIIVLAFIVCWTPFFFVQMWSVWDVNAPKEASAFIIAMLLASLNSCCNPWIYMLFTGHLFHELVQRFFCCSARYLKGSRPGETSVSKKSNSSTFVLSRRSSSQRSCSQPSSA
Procedure: Oxytocin Receptor Binding
Female Sprague-Dawley rats weighing approximately 200-250 g are injected intramuscularly (i.m.) with 0.3 mg/kg of body weight of diethylstilbestrol (DES). The rats are sacrificed 18 hours later under pentobarbital anesthesia. The uteri are dissected out, cleaned of fat and connective tissues and rinsed in 50 ml of normal saline. The tissue pooled from six rats is homogenized in 50 ml of 0.01 mMTris.HCl, containing 0.5 mM dithiothreitol and 1.0 mM EDTA, adjusted to pH 7.4, using a polytron at setting 6 with three passes of 10 sec each. The homogenate is passed through two (2) layers of cheesecloth and the filtrate centrifuged at 1000×g for 10 min. The clear supernatant is removed and recentrifuged at 165,000×g for 30 min. The resulting pellet containing the oxytocin receptors is resuspended in 50.0 mM Tris.HCl containing 5.0 mM MgCl2 at pH 7.4, to give a protein concentration of 2.5 mg/ml of tissue suspension. This preparation is used in subsequent binding assays with [^3 H]Oxytocin.
Binding of 3,5-[^3 H]Oxytocin ([^3 H]OT) to its receptors is done in microtiter plates using [^3 H]OT, at various concentrations, in an assay buffer of 50.0 mM Tris.HCl, pH 7.4 and containing 5.0 mM MgCl2, and a mixture of protease inhibitors: BSA, 0.1 mg; aprotinin, 1.0 mg; 1,10-phenanthroline, 2.0 mg; […], 10.0 mg; and PMSF, 0.3 mg per 100 ml of buffer solution. Nonspecific binding is determined in the presence of 1.0 uM unlabeled OT. The binding reaction is terminated after 60 min., at 22° C., by rapid filtration through glass fiber filters using a Brandel® cell harvester (Biomedical Research and Development Laboratories, Inc., Gaithersburg, Md.). Competition experiments are conducted at equilibrium using 1.0 nM [^3 H]OT and varying the concentration of the displacing agents. The concentrations of agent displacing 50% of [^3 H]OT at its sites (IC50) are calculated by a computer assisted LUNDON-2 program (LUNDON SOFTWARE INC., Ohio, USA).

| IC50 [1] [µM] | IC50 [2] [µM] | Structure (SMILES) | other results |
| --- | --- | --- | --- |
| 1.65 | 0.44 | O=C(Nc1ccc(C(=O)N2CCCCc3sccc32)cc1)c1ccc(Cl)c(Cl)c1 [Example 1, N-[4-[(5,6,7,8-Tetrahydro-4H-thieno[3,2-b]azepin-4-yl)carbonyl]phenyl]-3,4-dichlorobenzamide] |  |
| 0.077 | 0.023 | Cc1ccccc1C(=O)Nc1ccc(C(=O)N2CCCCc3sccc32)cc1 [Example 3, N-[4-[(5,6,7,8-Tetrahydro-4H-thieno[3,2-b]azepin-4-yl)carbonyl]phenyl]-2-methylbenzamide] | Osmolality (Vasopressin V2; 100 mg/kg P.O.): 1081 mOsm/kg; Urine Volume (Vasopressin V2; 100 mg/kg P.O.): 10 ml/4 hours |
| 0.4 | 1.8 | O=C(Nc1ccc(C(=O)N2CCCCc3sccc32)cc1)c1ccco1 [Example 4, N-[4-[(5,6,7,8-Tetrahydro-4H-thieno[3,2-b]azepin-4-yl)carbonyl]phenyl]2-furanecarboxamide] |  |
|  | 21.4 | CC(C)(C)c1ccc(C(=O)Nc2ccc(C(=O)N3CCCCc4sccc43)cc2)cc1 [Example 5, N-[4-[(5,6,7,8-Tetrahydro-4H-thieno[3,2-b]azepin-4-yl)carbonyl]phenyl]4-tert-butylbenzamide] |  |
| 50 | 3.4 | CCCCc1ccc(C(=O)Nc2ccc(C(=O)N3CCCCc4sccc43)cc2)cc1 [Example 6, N-[4-[(5,6,7,8-Tetrahydro-4H-thieno[3,2-b]azepin-4-yl)carbonyl]phenyl]4-(n-butyl)benzamide] |  |
| 0.059 | 0.138 | Cc1ccsc1C(=O)Nc1ccc(C(=O)N2CCCCc3sccc32)cc1 [Example 7, N-[4-[(5,6,7,8-Tetrahydro-4H-thieno[3,2-b]azepin-4-yl)carbonyl]phenyl]3-methyl-2-thiophenecarboxamide] | Urine Volume (Vasopressin V2; 100 mg/kg P.O.): 6.2 ml/4 hours |
| 0.2 | 0.12 | Cc1ccc(C)c(C(=O)Nc2ccc(C(=O)N3CCCCc4sccc43)cc2)c1 [Example 8, N-[4-[(5,6,7,8-Tetrahydro-4H-thieno[3,2-b]azepin-4-yl)carbonyl]phenyl]2,5-dimethylbenzamide] |  |
| 0.23 | 0.052 | Cc1cccc(C(=O)Nc2ccc(C(=O)N3CCCCc4sccc43)cc2)c1C [Example 10, N-[4-[(5,6,7,8-Tetrahydro-4H-thieno[3,2-b]azepin-4-yl)carbonyl]phenyl]2,3-dimethylbenzamide] |  |
| 0.28 | 0.06 | Cc1ccc(C(=O)Nc2ccc(C(=O)N3CCCCc4sccc43)cc2)c(C)c1 [Example 11, N-[4-[(5,6,7,8-Tetrahydro-4H-thieno[3,2-b]azepin-4-yl)carbonyl]phenyl]2,4-dimethylbenzamide] | Osmolality (Vasopressin V2; 30 mg/kg P.O.): 1420 mOsm/kg; Urine Volume (Vasopressin V2; 30 mg/kg P.O.): 5 ml/4 hours |
| 0.26 | 0.036 | O=C(Cc1ccccc1)Nc1ccc(C(=O)N2CCCCc3sccc32)cc1 [Example 12, N-[4-[(5,6,7,8-tetrahydro-4H-thieno[3,2-b]azepin-4-yl)carbonyl]phenyl]benzeneacetamide] |  |
| 1.3 | 5.5 | O=C(Nc1ccc(C(=O)N2CCCCc3sccc32)cc1)c1coc2c1C(=O)CCC2 [Example 179] |  |
| 8 | 0.37 | O=C(Nc1ccc(C(=O)N2CCCCc3sccc32)cc1)c1ccc2[nH]ccc2c1 [Example 180] |  |
|  |  | CCCCOc1ccc(C(=O)N2CCCCc3sccc32)cc1 [Example 233, 4-[4-(n-Butyloxy)benzoyl]-5,6,7,8-tetrahydro-4H-thieno[3,2-b]azepine] | IC50 (oxytocin receptors; 1.0 nM [3H]oxytocin): 0.95 µM; inhibition at 10 µM (oxytocin receptors; 10 μM): 93% |
